Where two headings read alike, the source gives them in different places.
Tests used:
HTT mRNA = experiment: Splicing RT-qPCR assay, HTT canonical (CJ) and alternative (AJ) junction mRNA; format: cell-based, human; settings: Homo sapiens; for IC50: canonical junction mRNA; for AC50: alternative junction mRNA, read-out: HTT AJ (AC50, increase in AJ mRNA)
Description: (§1) Compounds described herein were used to modulate RNA transcript abundance in cells. The expression of a target mRNA was measured by detecting the formation of an exon-exon junction in the canonical transcript (CJ). A compound mediated exon-inclusion event was detected by observing an increase in formation of a new junction with an alternative exon (AJ). Real-time qPCR assays were used to detect these splicing switches and interrogate the potency of various compounds towards different target genes. A high-throughput real time quantitative PCR (RT-qPCR) assay was developed to measure these two isoforms of the mRNA (CJ and AJ) for exemplary genes, such as HTT, SMN2, and MYB, together with a control housekeeping gene, GAPDH or GUSB or PPIA, used for normalization. Briefly, the A673 or K562 cell line was treated with various compounds described herein (e.g., compounds of Formula (D). After treatment, the levels of the HTT, MYB, or SMN2 mRNA targets were determined from each sample of cell lysate by cDNA synthesis followed by qPCR.
(§2) • Cells-to-CT 1-step kit: ThermoFisher A25602, Cells-to-CT lysis reagent: ThermoFisher 4391851C, TaqMan™ Fast Virus 1-Step Master Mix: ThermoFisher 4444436 • GAPDH: VIC-PL, ThermoFisher 4326317E (Assay: Hs99999905_m1)—used for K562/suspension cell lines • GUSB: VIC-PL, ThermoFisher 4326320E (Assay: Hs99999908_m1)—used for K562/suspension cell lines • PPIA: VIC-PL, ThermoFisher 4326316E (Assay: Hs99999904_m1)—used for A673/adherent cell lines
(§3) The A673 cell line was cultured in DMEM with 10% FBS. Cells were diluted with full growth media and plated in a 96-well plate (15,000 cells in 100 ul media per well). The plate was incubated at 37° C. with 5% CO2 for 24 hours to allow cells to adhere. An 11-point 3-fold serial dilution of the compounds was made in DMSO then diluted in media in an intermediate plate. Compounds were transferred from the intermediate plate to the cell plate with the top dose at a final concentration of 10 uM in the well. Final DMSO concentration was kept at or below 0.25%. The cell plate was returned to the incubator at 37° C. with 5% CO2 for an additional 24 hours.
(§4) The K562 cell line was cultured in IMDM with 10% FBS. For K562, cells were diluted with full growth media and plated in either a 96-well plate (50,000 cells in 50 uL media per well) or a 384-well plate (8,000-40,000 cells in 45 uL media per well). An 11-point 3-fold serial dilution of the compounds were made in DMSO then diluted in media in an intermediate plate. Compound was transferred from the intermediate plate to the cell plate with the top dose at a final concentration of 10 uM in the well. Final DMSO concentration was kept at or below 0.25%. Final volume was 100 uL for 96-well plate and 50 uL for 384-well plate. The cell plate was then placed in an incubator at 37° C. with 5% CO2 for 24 hours.
(§5) The cells were then gently washed with 50 uL-100 uL cold PBS before proceeding to addition of lysis buffer. 30 uL-50 μL of room temperature lysis buffer with DNAse I (and optionally RNAsin) was added to each well. Cells were shaken/mixed thoroughly at room temperature for 5-10 minutes for lysis to take place and then 3 uL-5 μL of room temperature stop solution was added and wells were shaken/mixed again. After 2-5 minutes, the cell lysate plate was transferred to ice for RT-qPCR reaction setup. The lysates could also be frozen at −80° C. for later use.
(§6) In some cases, a direct lysis buffer was used. An appropriate volume of 3× lysis buffer (10 mM Tris, 150 mM NaCl, 1.5%-2.5% Igepal and 0.1-1 U/uL RNAsin, pH 7.4) was directly added to either K562 or A673 cells in media and mixed by pipetting 3 times. The plates were then incubated at room temperature with shaking/rocking for 20-50 minutes to allow for lysis to take place. After this time, the cell lysate plate was transferred to ice to set up for the RT-qPCR reactions. The lysates could also be frozen at −80° C. for later use. […]

MYB mRNA = experiment: Splicing RT-qPCR assay, MYB canonical (CJ) and alternative (AJ) junction mRNA; format: cell-based, human; settings: Homo sapiens; for IC50: canonical junction mRNA; for AC50: alternative junction mRNA, read-out: MYB AJ (AC50, increase in AJ mRNA)
Description: as §1, §2, §3, §4, §5, §6

SMN2 mRNA = experiment: Splicing RT-qPCR panel, SMN2 canonical junction (CJ) mRNA; format: cell-based, human; settings: Homo sapiens, read-out: SMN2 CJ (decrease in CJ mRNA levels, IC50)
Description: as §1, §3, §4, §5
(§7) In some cases, a direct lysis buffer was used. An appropriate volume of 3× lysis buffer (10 mM Tris, 150 mM NaCl, 1.5%-2.5% Igepal and 0.1-1 U/uL RNAsin, pH 7.4) was directly added to either K562 or A673 cells in media and mixed by pipetting 3 times. The plates were then incubated at room temperature with shaking/rocking for 20-50 minutes to allow for lysis to take place. After this time, the cell lysate plate was transferred to ice to set up for the RT-qPCR reactions. The lysates could also be frozen at −80° C. for later use.
(§8) To set up 10 uL RT-qPCR reactions, cell lysates were transferred to 384-well qPCR plates containing the master mix according to the table below. The plates were sealed, gently vortexed, and spun down before the run. The volumes were adjusted accordingly in some instances where the reaction was carried in 20 μL. The table below summarizes the components of the RT-qPCR reactions:
(§9) The RT-qPCR reaction was performed using a QuantStudio (ThermoFisher) under the following fast cycling conditions. […]

Target C mRNA = experiment: Splicing RT-qPCR panel, Target C canonical junction (CJ) mRNA; format: cell-based, human; settings: Homo sapiens, read-out: Target C CJ (decrease in CJ mRNA levels, IC50)
Description: as §1, §3, §4, §5, §7, §8, §9

K562 cells = experiment: Cell viability, Cell Titer Glo 2.0 assay, K562; settings: 72 hours
[1] = 24 h, RT-qPCR, A673 or K562 cells, 24 hours treatment, read-out: HTT CJ (IC50, decrease in CJ mRNA)
[2] = qPCR panel, read-out: HTT CJ (decrease in CJ mRNA levels, IC50)
[3] = RT-qPCR, A673 or K562 cells, 24 hours treatment
[4] = qPCR panel, read-out: MYB CJ (decrease in CJ mRNA levels, IC50)
[5] = RT-qPCR, A673 or K562 cells, 24 hours treatment, read-out: MYB CJ (IC50, decrease in CJ mRNA)

Structure (SMILES)	IC50 (HTT mRNA; [1])	IC50 (HTT mRNA; [2])	AC50 (HTT mRNA; [3])	IC50 (MYB mRNA; [4])	AC50 (MYB mRNA; [3])	IC50 (MYB mRNA; [5])	IC50 (SMN2 mRNA)	IC50 (Target C mRNA)	Effect on Cell Viability, K562 (K562 cells)
C[C@@H]1CN(c2cnc3nc(-c4cc5cn(C)nc5cc4O)ccc3c2Cl)C[C@H](C)N1 [Compound 492]	1000 to 10000 nM	1000 to 10000 nM	1000 to 10000 nM	< 100 nM	< 100 nM	< 100 nM	< 100 nM	–	–
Cn1cc2cc(-c3ccc4c(Cl)c(N5CCNC6(CC6)C5)cnc4n3)c(O)cc2n1 [Compound 500, 5-[5-chloro-6-(4,7-diazaspiro[2.5]octan-7-yl)-1,8-naphthyridin-2-yl]-2-methyl-indazol-6-ol]	1000 to 10000 nM	1000 to 10000 nM	1000 to 10000 nM	100 to 1000 nM	100 to 1000 nM	100 to 1000 nM	< 100 nM	–	–
CNC1CCN(c2cnc3nc(-c4cc5cn(C)nc5c(C)c4O)ccc3c2)C1 (centres unmarked) [Compound 113, 2,7-dimethyl-5-{6-[3-(methylamino)pyrrolidin-1-yl]-1,8-naphthyridin-2-yl}indazol-6-ol]	100 to 1000 nM	100 to 1000 nM	100 to 1000 nM	< 100 nM	< 100 nM	< 100 nM	< 100 nM	100 to 1000 nM	–
Cn1cc2cc(-c3cnc4cc(C5CCNCC5)cc(F)c4n3)c(O)c(F)c2n1 [Compound 164, 7-fluoro-5-[8-fluoro-6-(piperidin-4-yl)quinoxalin-2-yl]-2-methylindazol-6-ol]	< 100 nM	< 100 nM	< 100 nM	< 100 nM	< 100 nM	< 100 nM	< 100 nM	< 100 nM	–
Cc1c(N2C[C@@H](C)N[C@@H](C)C2)cnc2nc(-c3cc4cn(C)nc4cc3O)ccc12 [Compound 487]	> 10000 nM	> 10000 nM	> 10000 nM	1000 to 10000 nM	1000 to 10000 nM	1000 to 10000 nM	< 100 nM	–	–
Cn1cc2cc(-c3cc(Cl)c4cc(N5CC[C@@H](NC(C)(C)C)C5)cnc4n3)c(O)c(F)c2n1 [Compound 498]	> 10000 nM	> 10000 nM	> 10000 nM	100 to 1000 nM	100 to 1000 nM	100 to 1000 nM	< 100 nM	–	–
Cc1c(O)c(-c2ccc3nc(N4CCNC(C)C4)cnc3n2)cc2cn(C)nc12 (centres unmarked) [Cmpd 196]	100 to 1000 nM	100 to 1000 nM	1000 to 10000 nM	100 to 1000 nM	< 100 nM	100 to 1000 nM	< 100 nM	1000 to 10000 nM	–
CN1CCC[C@H]2CN(c3cnc4nc(-c5cc(F)c6nn(C)cc6c5)cc(Cl)c4c3)C[C@H]21 [Compound 376, 6-[(4aS,7aS)-1-methyl-hexahydro-2H-pyrrolo[3,4-b]pyridin-6-yl]-4-chloro-2-(7-fluoro-2-methylindazol-5-yl)-1,8-naphthyridine]	> 10000 nM	> 10000 nM	> 10000 nM	1000 to 10000 nM	1000 to 10000 nM	1000 to 10000 nM	–	> 10000 nM	C (1000-9999 nM)
Cc1c(O)c(-c2cc(Cl)c3cc(N4C[C@H](C)N[C@@H](C)C4)cnc3n2)cc2cn(C)nc12 [Compound 232, 5-{4-chloro-6-[(3S,5S)-3,5-dimethylpiperazin-1-yl]-1,8-naphthyridin-2-yl}-2,7-dimethylindazol-6-ol]	< 100 nM	< 100 nM	< 100 nM	< 100 nM	< 100 nM	< 100 nM	–	100 to 1000 nM	A (<100 nM)
Cc1c(O)c(-c2cc(Cl)c3cc(N4C[C@@H]5CCCN(C)[C@@H]5C4)cnc3n2)cc2cn(C)nc12 [Compound 375]	> 10000 nM	> 10000 nM	> 10000 nM	100 to 1000 nM	100 to 1000 nM	100 to 1000 nM	–	> 10000 nM	B (100-1000 nM)
Cn1cc2cc(-c3cc(Cl)c4cc(N5CC[C@H](NC(C)(C)C)C5)cnc4n3)c(O)c(F)c2n1 [Compound 497]	< 100 nM	< 100 nM	100 to 1000 nM	< 100 nM	< 100 nM	< 100 nM	< 100 nM	–	–

Source: patent publication US20250326748A1, “COMPOUNDS AND METHODS FOR MODULATING SPLICING” (REMIX THERAPEUTICS INC., priority 2022, published 2025)
